# Source: ChEMBL document CHEMBL3396965, “Peptide inhibitors of the Escherichia coli DsbA oxidative machinery essential for bacterial virulence” (J Med Chem, 2015)
# Active and inactive are the calls of the source. No cut-off for these calls is given here. Square brackets hold non-standard residues; d marks the D form. Peptide text beside a SMILES is read from it. Dip = N[C@H](C(=O)O)C(c1ccccc1)c1ccccc1; hPhe = N[C@@H](CCc1ccccc1)C(=O)O; Tic = O=C(O)[C@@H]1Cc2ccccc2CN1; Pip = O=C(O)[C@@H]1CCCCN1; hSer = N[C@@H](CCO)C(=O)O; Nva = CCC[C@H](N)C(=O)O
# How the values were obtained:
# [1] = biological target: T1, Thioredoxin reductase 1, cytoplasmic (Homo sapiens) (UniProt Q16881); assay: Inhibition of oxidized human TXR1 reductase activity by insulin reduction assay
# T1 sequence (whole entry): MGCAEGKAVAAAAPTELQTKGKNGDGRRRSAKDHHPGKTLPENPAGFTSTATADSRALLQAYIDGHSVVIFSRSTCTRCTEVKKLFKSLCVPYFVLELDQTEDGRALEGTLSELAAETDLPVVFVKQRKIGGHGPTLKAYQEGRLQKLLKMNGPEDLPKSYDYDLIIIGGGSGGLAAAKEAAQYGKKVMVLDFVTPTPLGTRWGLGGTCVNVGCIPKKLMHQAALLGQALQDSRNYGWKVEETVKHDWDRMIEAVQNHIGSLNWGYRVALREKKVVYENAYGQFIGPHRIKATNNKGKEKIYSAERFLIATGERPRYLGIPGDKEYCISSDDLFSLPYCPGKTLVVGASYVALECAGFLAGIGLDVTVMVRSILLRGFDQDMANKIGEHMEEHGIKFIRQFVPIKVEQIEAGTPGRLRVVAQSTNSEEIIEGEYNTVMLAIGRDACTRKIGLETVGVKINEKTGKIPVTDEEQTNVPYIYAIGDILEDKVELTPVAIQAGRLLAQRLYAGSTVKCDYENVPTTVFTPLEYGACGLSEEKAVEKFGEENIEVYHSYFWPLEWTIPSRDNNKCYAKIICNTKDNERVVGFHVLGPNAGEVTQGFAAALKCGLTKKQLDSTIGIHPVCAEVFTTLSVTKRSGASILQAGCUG
# [2] = biological target: T2, Thiol:disulfide interchange protein DsbA (Escherichia coli (strain K12), UniProt P0AEG4); assay: Binding affinity to oxidized Escherichia coli DsbA by isothermal titration calorimetry assay
# T2 sequence (P0AEG4 whole entry): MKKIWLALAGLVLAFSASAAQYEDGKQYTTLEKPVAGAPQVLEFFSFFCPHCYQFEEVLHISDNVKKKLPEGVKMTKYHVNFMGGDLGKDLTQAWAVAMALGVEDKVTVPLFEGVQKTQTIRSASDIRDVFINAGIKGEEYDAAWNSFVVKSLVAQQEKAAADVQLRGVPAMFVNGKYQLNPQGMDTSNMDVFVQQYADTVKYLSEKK
# [3] = biological target: T3, Thiol:disulfide interchange protein DsbA (Escherichia coli (strain K12)) (UniProt P0AEG4); assay: Binding affinity to Escherichia coli DsbA assessed as change in melting temperature at 1 mM by Thermal shift assay
# T3 sequence (whole entry): T2 sequence (P0AEG4 whole entry)
# [4] = biological target: T3, Thiol:disulfide interchange protein DsbA (Escherichia coli (strain K12)); assay: Binding affinity to Escherichia coli DsbA assessed as change in melting temperature at 4 mM by Thermal shift assay
# [5] = biological target: T3, Thiol:disulfide interchange protein DsbA (Escherichia coli (strain K12)); assay: Binding affinity to Escherichia coli DsbA assessed as change in melting temperature at 500 uM by Thermal shift assay
# [6] = biological target: T3, Thiol:disulfide interchange protein DsbA (Escherichia coli (strain K12)); assay: Binding affinity to Escherichia coli DsbA assessed as change in melting temperature at 250 uM by Thermal shift assay
# [7] = biological target: T3, Thiol:disulfide interchange protein DsbA (Escherichia coli (strain K12)); assay: Binding affinity to Escherichia coli DsbA assessed as change in melting temperature at 125 uM by Thermal shift assay
# [8] = biological target: T3, Thiol:disulfide interchange protein DsbA (Escherichia coli (strain K12)); assay: Binding affinity to Escherichia coli DsbA assessed as change in melting temperature at 2 mM by Thermal shift assay
Compound,Kd [2],Kd ([2]; read-out: Kd),further results
CC(=O)N1CCC[C@H]1C(=O)N[C@@H](Cc1c[nH]c2ccccc12)C(=O)N[C@@H](C)C(=O)N[C@H](C(=O)N[C@@H](CS)C(=O)N[C@@H](CC(=O)O)C(=O)N[C@@H](CO)C(N)=O)[C@@H](C)O,–,–,inhibition [1]: inactive
CCC[C@H](NC(=O)[C@@H](NC(=O)[C@H](C)NC(=O)[C@H](Cc1c[nH]c2ccccc12)NC(=O)[C@@H]1CCCN1C(=O)[C@H](CO)NC(=O)[C@@H]1CCCN1C(C)=O)[C@@H](C)O)C(N)=O (Ac-PSPWAT[Nva]-NH2),Not Active,–,–
CC(=O)N1CCC[C@H]1C(=O)N[C@@H](CO)C(=O)N1CCC[C@H]1C(=O)N[C@@H](Cc1c[nH]c2ccccc12)C(=O)N[C@@H](C)C(=O)N[C@H](C(=O)N[C@@H](CCO)C(N)=O)[C@@H](C)O (Ac-PSPWAT[hSer]-NH2),Not Active,–,–
CC(=O)N1CCC[C@H]1C(=O)N[C@@H](CO)C(=O)N1CCC[C@H]1C(=O)N[C@@H](CCc1ccccc1)C(=O)N[C@@H](C)C(=O)N[C@H](C(=O)N[C@@H](CS)C(N)=O)[C@@H](C)O (Ac-PSP[hPhe]ATC-NH2),–,14.9 µM,–
CC(=O)N1CCC[C@H]1C(=O)N[C@@H](CO)C(=O)N1CCCC[C@H]1C(=O)N[C@@H](Cc1c[nH]c2ccccc12)C(=O)N[C@@H](C)C(=O)N[C@H](C(=O)N[C@@H](CS)C(N)=O)[C@@H](C)O (Ac-PS[Pip]WATC-NH2),–,12 µM,–
CC(=O)N1CCC[C@H]1C(=O)N[C@@H](CO)C(=O)N1Cc2ccccc2C[C@H]1C(=O)N[C@@H](Cc1c[nH]c2ccccc12)C(=O)N[C@@H](C)C(=O)N[C@H](C(=O)N[C@@H](CS)C(N)=O)[C@@H](C)O (Ac-PS[Tic]WATC-NH2),–,13.1 µM,–
CC(=O)N1CCC[C@H]1C(=O)N[C@@H](CCc1ccccc1)C(=O)N[C@@H](C)C(=O)N[C@H](C(=O)N[C@@H](CS)C(=O)N[C@@H](CC(=O)O)C(=O)N[C@@H](CO)C(N)=O)[C@@H](C)O (Ac-P[hPhe]ATCDS-NH2),–,8.3 µM,–
Ac-PFATCDF-NH2,–,5.9 µM,–
Ac-PFATCDS-NH2,–,13.1 µM,ΔTm [3]: 5.3 °C; ΔTm [4]: 9 °C; ΔTm [5]: 3.3 °C; ΔTm [6]: 1.7 °C; ΔTm [7]: 0.6 °C; ΔTm [8]: 7.2 °C
Ac-PSPWATC-NH2,–,18 µM,–
Ac-PSPWATCDF-NH2,–,2.9 µM,–
Ac-PSPWATN-NH2,Not Active,–,–
Ac-PSPWATSDF-NH2,Not Active,–,–
Ac-PWATCDF-NH2,–,3 µM,–
Ac-PWATSDS-NH2,Not Active,–,ΔTm [3]: 0.6 °C; ΔTm [4]: 2.9 °C; ΔTm [5]: 0.2 °C; ΔTm [6]: 0.2 °C; ΔTm [7]: 0.1 °C; ΔTm [8]: 1.5 °C
Ac-SPWATCDF-NH2,–,2.2 µM,–

# Continued, in another order:
Kd [2],Kd ([2]; read-out: Kd),Compound,further results
–,9.7 µM,CC(=O)N1CCC[C@H]1C(=O)N[C@@H](CO)C(=O)N1CCC[C@H]1C(=O)N[C@H](C(=O)N[C@@H](C)C(=O)N[C@H](C(=O)N[C@@H](CS)C(N)=O)[C@@H](C)O)C(c1ccccc1)c1ccccc1 (Ac-PSP[Dip]ATC-NH2),–
–,2.7 µM,Ac-ASPWATCDF-NH2,–
–,2.8 µM,Ac-PAPWATCDF-NH2,–
–,5.5 µM,Ac-PSAWATCDF-NH2,–
–,5.8 µM,Ac-PSPAATCDF-NH2,–
–,11.3 µM,Ac-PSPWAACDF-NH2,–
Not Active,–,Ac-PSPWATADF-NH2,–
–,3.1 µM,Ac-PSPWATCAF-NH2,–
–,10.7 µM,Ac-PSPWATCD-NH2,–
–,4.4 µM,Ac-PSPWATCDA-NH2,–
Not Active,–,Ac-PSPWATIDF-NH2,–
Not Active,–,Ac-PSPWATM-NH2,–
Not Active,–,Ac-PSPWATVDF-NH2,–
